What all share (type): in vivo
One experiment deals with Plasmopara viticola. Briefly: Preventive activity (7 days) against Plasmopara viticola on vines. Conditions: vine Merlot, inoculation 7 days after treatment, reduction of diseased leaf area vs non-treated. The protocol:
Determination of the Preventive Activity (7 Days) of the Compounds Having Formula (I) Against Plasmopara viticola on Vines
Leaves of vine plants of the Merlot variety, grown in pots, in a conditioned environment, (20±1° C., 70% of R.H.) were treated by spraying both sides with the compound under examination.
7 days after the treatment, the plants were inoculated with an aqueous suspension of spores of Plasmopara viticola (200,000 spores/cc) by spraying both sides of the leaves with a compressed air gun.
After remaining 24 hours in a humidity-saturated environment, at 21° C. the plants were transferred for an incubation period (7 days) in a conditioned environment at 70% of R H. and at 24° C.
At the end of this period, the external symptoms of the pathogen appeared and it was therefore possible to proceed with the evaluation of the intensity of the infection.
The fungicidal activity was expressed as the reduction percentage, with respect to non-treated seedlings, in the area of the leaf affected by the disease (100=full effectiveness; 0=zero effectiveness).

For a further experiment, the system named is Helmintosporium teres. Briefly: Fungicidal activity against Helmintosporium teres on barley. The conditions noted are these: barley cv. Gemini, scale 0 (plant completely infected) to 100 (healthy plant). The method, then:
Determination of the Fungicidal Activity of the Compounds Having Formula (I) Against Helmintosporium Teres on Barley
Leaves of barley plants (cultivar Gemini), grown in pots in a conditioned environment (20±1° C., 70% of R.H.), were treated by spraying both sides of the leaves with the compounds under examination, dispersed in a […] solution at 20% by volume of acetone.
After remaining 5 days in a conditioned environment, the plants were sprayed on both sides of the leaves with an aqueous suspension of conidia of Helmintosporium teres (50,000 conidia per cm^3 (adding Tween 20-1 drop/100 ml).
The plants were then kept in a controlled environment during the incubation period of the fungus (1 day wet room for infection, 3 days in a cell with R.H. 70% and […] for the incubation period, 3 days for wet room evasion, 12 days biological cycle).
At the end of this period (12 days), the fungicidal activity was evaluated according to an evaluation percentage scale from 0 (plant completely infected) to 100 (healthy plant).

A further experiment concerns Puccinia recondita. Kind of experiment: Preventive fungicidal activity (5 days) against Puccinia recondita on wheat. Conditions: for P5 activity NT (parts developed during the test) / P5 activity T (parts treated directly with the products): wheat Salgemma, inoculation 5 days after spraying, reduction of diseased leaf area vs non-treated. The protocol: Determination of the Preventive Fungicidal Activity (5 Days) Against Puccinia recondita on Wheat
Leaves of wheat plants of the Salgemma variety, grown in pots in a conditioned environment at 20° C. and 70% of Relative Humidity (RH) were treated by spraying both sides of the leaves with the compound under examination (see Table 4 hereunder) dispersed in a hydroacetone solution at 20% by volume of acetone.
After remaining 5 days in a conditioned environment, the plants were sprayed on both sides of the leaves with an aqueous suspension of conidia of Puccinia recondita (2 mg of inoculum per 1 ml of solution for infection).
After spraying, the plants were kept in a humidity-saturated environment at a temperature ranging from 18 to 24° C. for the incubation period of the fungus (1 day).
At the end of this period, the plants were put in a greenhouse with a relative humidity (RH) of 70% and at a temperature of 18-24° C. for 14 days.
At the end of this period, the external symptoms of the pathogen appeared and it was therefore possible to proceed with the visual evaluation of the intensity of the infection, both on the parts treated directly with the products (T) and on the parts developed during the implementation of the test (NT).
The fungicidal activity is expressed as a percentage of the reduction, with respect to non-treated seedlings (comparison), in the area of the leaf affected by the disease (100=full effectiveness; 0=zero effectiveness).

Three molecules from patent US11365175B2, “Aromatic amides having a fungicidal activity, their agronomic compositions and relative preparation method” (ISAGRO S.p.A., priority 2017, dated 2022) can be followed below.

As for `CC1(C)CC(NC(=O)c2cccc(NC=O)c2O)CC(C)(C)C1` [CR1, 3-formylamino-2-hydroxy-N-(3,3,5,5-tetramethylcyclohexyl)benzamide, reference compound], the P7 activity is recorded as 50% in the experiment on Plasmopara viticola (30 ppm), 65% in the experiment on Plasmopara viticola (125 ppm), 5% in the experiment with Helmintosporium teres (125 ppm) and 15% in the experiment with Helmintosporium teres (250 ppm). The “P5 activity NT (parts developed during the test)” value (“P5 activity NT” for short) in the experiment with Puccinia recondita (125 ppm) stood at 35%; in the experiment on Puccinia recondita (250 ppm), 50%. The results for the “P5 activity T (parts treated directly with the products)” value (shortened to “P5 activity T”) in the experiment on Puccinia recondita (125 ppm) and in the experiment on Puccinia recondita (250 ppm) were 50% and 65%, respectively.
Take `CC(C)C(=O)OCOc1c(NC=O)cccc1C(=O)NC1CC(C)(C)CC(C)(C)C1` [Compound 1, 3-formylamino-2-[(2-methyl-propanoyl-oxy)methoxy]-N-(3,3,5,5-tetramethylcyclohexyl)benzamide]: the P7 activity was found to be 100% with Plasmopara viticola (30 ppm), 100% in the experiment with Plasmopara viticola (125 ppm), 75% in the experiment with Helmintosporium teres (125 ppm) and 80% with Helmintosporium teres (250 ppm). For the same molecule, the “P5 activity NT” value in the experiment on Puccinia recondita (125 ppm) was determined as 60%; in the experiment on Puccinia recondita (250 ppm), 65%. Moreover, the “P5 activity T” value with Puccinia recondita (125 ppm) is recorded as 70%; in the experiment with Puccinia recondita (250 ppm), 75%. The “fungicidal activity (full activity)” value in the experiment on Puccinia recondita (dosage of 250 ppm, T/NT not specified) stood at 100%.
With `CC(C)C(=O)OCOc1c(C(=O)NC2CC(C)(C)CC(C)(C)C2)cccc1N(C=O)COC(=O)C(C)C` [Compound 4, 3-(N′-formyl-N′-[(2-methylpropanoyl-oxy)methyl]amino)-2-[(2-methylpropanoyloxy)methoxy]-N-(3,3,5,5-tetramethylcyclohexyl)-benzamide], the P7 activity in the experiment on Plasmopara viticola (30 ppm) and in the experiment on Plasmopara viticola (125 ppm) was 100% each time. In addition, the “P5 activity NT” value in the experiment with Puccinia recondita (125 ppm) came to 65%; in the experiment with Puccinia recondita (250 ppm), 70%. The “P5 activity T” value in the experiment with Puccinia recondita (125 ppm) is given as 70%; in the experiment with Puccinia recondita (250 ppm) it was 80%.
